US20060223879A1, “Non-steroidal farnesoid x receptor modulators” (priority 2002, published 2006)
“Also recorded” adds a separate entry of the source. Where two headings read alike, the source gives them in different places.

Biological target: T1, FXR (Homo sapiens, UniProt Q96RI1)
T1 construct: using a full length FXR on a natural response element; expressed in transfected cells
T1 sequence (Q96RI1 1-486): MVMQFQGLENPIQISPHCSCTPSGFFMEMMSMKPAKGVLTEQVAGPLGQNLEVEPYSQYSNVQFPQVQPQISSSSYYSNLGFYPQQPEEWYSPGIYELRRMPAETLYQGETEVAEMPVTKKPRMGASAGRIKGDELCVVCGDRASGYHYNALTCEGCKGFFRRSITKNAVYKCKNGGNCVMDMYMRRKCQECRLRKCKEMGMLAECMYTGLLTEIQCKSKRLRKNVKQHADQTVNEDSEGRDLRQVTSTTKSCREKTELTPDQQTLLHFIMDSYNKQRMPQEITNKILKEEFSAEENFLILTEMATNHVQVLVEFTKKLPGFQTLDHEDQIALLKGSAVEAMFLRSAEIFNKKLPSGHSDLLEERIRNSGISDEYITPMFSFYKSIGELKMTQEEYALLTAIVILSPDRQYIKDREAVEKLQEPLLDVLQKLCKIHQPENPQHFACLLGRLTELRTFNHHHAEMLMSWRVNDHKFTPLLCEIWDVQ
Experiment: cell-based transcription assay, FXR responsive promoter linked to a luciferase reporter
Set-up: RE: scale not given here
Conditions: for RE: RE not defined in the source
From the text: In addition to ensuring that only cell permeable compounds were selected for further optimization, this approach allows for the detection of FXR activation in a natural system (i.e., correct folding of the protein and in the presence of a complete compliment of co-activators and co-repressors).
The feasibility of creating high throughput screens (XIS) for ORs was explored using FXR as a candidate orphan receptor (OR) with a known activator, chenodeoxycholic acid (CDCA) as a ligand. The screen is based on the co-transfection of a full-length receptor with the reporter vector containing a natural hormone response element under a minimal eukaryotic promoter. […] Using this 384-well format, the high throughput screening (HTS) approach to FXR as a candidate OR was employed. […] A central question in the feasibility studies is whether this library is suitable for screening for nuclear receptor ligands. Samples of this library were first reformatted into a 384-well format and then subjected to the FXR cell-based assays described above and assessed for FXR-mediated transcriptional activity. Cells were exposed to approximately 10 μM of sample for 18 hrs prior to washing and luciferase analysis.
EC50 values were determined with Prism 3.0 software via the activity of the subject compound in the previously described cell based assay.

[1] = FXR activation, cell-based reporter assay, read-out: EC50
[2] = Tables 1-15, FXR activation, cell-based reporter assay, read-out: EC50
[3] = library screening hits and leads, read-out: activity (EC50)

| SMILES | EC50 [1] [nM] | RE (Tables 1-15) | EC50 [2] [nM] | FXR activation (in words) (cell-based reporter assay) | EC50 [3] [nM] |
| --- | --- | --- | --- | --- | --- |
| COC(=O)C=Cc1cccc(N(Cc2ccc(C=Cc3ccc(OC)cc3)cc2)C(=O)C2CCCCC2)c1 [Compound 122] | 208 | 1.67 |  |  |  |
| COC(=O)/C=C/c1cccc(N(Cc2ccc3c(c2OC)OC(C)(C)C=C3)S(=O)(=O)c2ccc(C)cc2)c1 [Compound 82] |  |  |  | inactive |  |
| COC(=O)C=Cc1cccc(N(Cc2ccc(C=CC(=O)OC(C)(C)C)cc2OCc2ccccc2)C(=O)C2CCCCC2)c1 [Compound 163] |  | 0.38 | > 1000 |  |  |
| COC(=O)C=Cc1cccc(N(Cc2ccc(C=Cc3c(C)cc(C)cc3C)cc2)C(=O)C2CCCCC2)c1 [Compound 195] |  | 0.24 | 518 | among the least active |  |
| COC(=O)C=Cc1cccc(N(Cc2ccc3c(c2OC)OC(C)(C)C(O)C3N2CCCCC2)C(=O)c2ccccc2)c1 (centres unmarked) [Compound 100] |  |  |  | did not improve the activity |  |
| COC(=O)/C=C/c1cccc(N(Cc2ccc(/C=C/C(=O)OC(C)(C)C)cc2)C(=O)NCc2ccccc2)c1 [Compound 146] |  | 0.27 | > 1000 | only marginal efficacy |  |
| COC(=O)/C=C/c1cccc(N(Cc2ccccc2)C(=O)C2CCCCC2)c1 [Compound 110] |  | 0.09 | > 1000 | inactive |  |
| COC(=O)/C=C/c1ccc(N(Cc2ccc3c(c2OC)OC(C)(C)C=C3)C(=O)C2CC2)cc1 [Compound 53] |  |  |  | does not activate FXR under the conditions tested |  |
| COc1cc(CN(CC(C)C)C(=O)c2ccccc2)cc2c1OC(C)(C)C=C2 [Compound 20] |  |  |  |  | 5000 to 10000 |
| COC(=O)/C=C/c1cccc(NC(=O)C2CCCCC2)c1 [Compound 132] |  | 0.09 | > 1000 |  |  |
| COc1c(CN(C(=O)c2ccccc2C(=O)O)c2ccccc2)ccc2c1OC(C)(C)C=C2 [Compound 22] |  |  |  |  | 5000 to 10000 |
| COC(=O)C=Cc1cccc(N(Cc2ccc3c(c2OC)OC(C)(C)C(O)C3Sc2ccccc2)C(=O)c2ccccc2)c1 (centres unmarked) [Compound 98] |  |  |  | did not improve the activity |  |
| COC(=O)/C=C/c1cccc(N(C)Cc2ccc3c(c2OC)OC(C)(C)C=C3)c1 [Compound 79] |  |  |  | inactive |  |
| COC(=O)/C=C/c1cccc(N(Cc2ccc(/C=C/c3cccc(C(F)(F)F)c3)cc2)C(=O)C(C)C)c1 [Compound 187] |  | 0.70 | 267 |  |  |
| COC(=O)/C=C/c1cccc(N(Cc2ccc(/C=C/c3ccccc3F)cc2)C(=O)C(C)C)c1 [Compound 193] |  | 1.17 | 70 | excellent activity |  |
| COC(=O)/C=C/c1cccc(N(Cc2ccc(/C=C/c3c(Cl)cccc3Cl)cc2)C(=O)C2CCCCC2)c1 [Compound 177] |  | 0.12 | 150 | excellent activity |  |
| COC(=O)/C=C/c1cccc(N(Cc2cccc(/C=C/C(=O)OC(C)(C)C)c2)C(=O)C2CCCCC2)c1 [Compound 107] |  |  |  | only micromolar potency |  |
| COC(=O)C=Cc1ccc(CN(C(=O)C2CCCCC2)c2cccc(C=CC(=O)OC)c2)cc1 [Compound 150] |  | 0.87 | > 1000 |  |  |
| COC(=O)C=Cc1cccc(N(Cc2ccc3c(c2OC)OC(C)(C)C(O)C3O)C(=O)c2ccccc2)c1 (centres unmarked) [Compound 94] |  |  |  | did not improve the activity |  |
| COC(=O)/C=C/c1cccc(N(Cc2ccc3c(c2OC)OC(C)(C)C2C3C2(Cl)Cl)C(=O)c2ccccc2)c1 (centres unmarked) [Compound 102] | 333 | 0.64 |  |  |  |
| COC(=O)/C=C/c1cccc(N(Cc2ccc(/C=C/c3ccc(C)cc3)cc2)C(=O)C(C)C)c1 [Compound 175] |  | 0.37 |  |  |  |
| COC(=O)/C=C/c1cccc(N(Cc2ccc(C(C)(C)C)cc2)C(=O)C2CCCCC2)c1 [Compound 148] |  | 0.15 | > 1000 |  |  |
| COC(=O)C=Cc1cccc(N(Cc2ccc(C=Cc3cccc(F)c3)cc2)C(=O)C2CCCCC2)c1 [Compound 201] |  | 1.38 | 86 | excellent activity; also recorded: among the most active |  |
| CCOC(=O)/C=C/c1cccc(N(Cc2ccc3c(c2OC)OC(C)(C)C=C3)C(=O)C2CC2)c1 [Compound 30] |  |  |  | inactive |  |
| COC(=O)/C=C/c1cccc(N(Cc2ccc(/C=C/c3cc(C(F)(F)F)cc(C(F)(F)F)c3)cc2)C(=O)NC(C)C)c1 [Compound 185] |  | 0.13 | 1830 |  |  |
| COc1cc(CN(C(=O)CC(C)C)c2ccccc2)cc2c1OC(C)(C)C=C2 [Compound 24] |  |  |  |  | 5000 to 10000 |

Now from value to molecule:

| EC50 [1] [nM] | RE (Tables 1-15) | EC50 [2] [nM] | FXR activation (in words) (cell-based reporter assay) | EC50 [3] [nM] | SMILES |
| --- | --- | --- | --- | --- | --- |
|  | 1.64 | 129 |  |  | COC(=O)/C=C/c1cccc(N(Cc2ccc(-c3ccc(F)c(Cl)c3)cc2)C(=O)C(C)C)c1 [Compound 248] |
| 25 | 1.72 |  | excellent activity |  | COC(=O)/C=C/c1cccc(N(Cc2ccc(-c3ccc(N(C)C)cc3)cc2)C(=O)C2CCCCC2)c1 [Compound 259] |
| 309 | 0.61 |  |  |  | COC(=O)C=Cc1cccc(N(Cc2ccc(C=Cc3ccccn3)cc2)C(=O)C2CCCCC2)c1 [Compound 207] |
|  | 0.54 | 561 |  |  | COC(=O)/C=C/c1cccc(N(Cc2ccc(-c3cc(Cl)cc(Cl)c3)cc2)C(=O)C(C)C)c1 [Compound 221] |
|  | 0.49 | 1400 |  |  | COC(=O)/C=C/c1cccc(N(Cc2ccc(-c3cccc(Cl)c3)cc2)C(=O)NC(C)C)c1 [Compound 234] |
|  |  | 97 | excellent activity |  | COC(=O)/C=C/c1cccc(N(Cc2ccc(-c3ccc(OC)cc3)cc2)C(=O)C(C)C)c1 [Compound 230] |
| 38 | 1.90 |  | excellent activity |  | COC(=O)/C=C/c1cccc(N(Cc2ccc(-c3ccc4c(c3)OCO4)cc2)C(=O)C2CCCCC2)c1 [Compound 244] |
|  | 0.84 | 420 |  |  | COC(=O)/C=C/c1cccc(N(Cc2ccc(-c3cccc(OC(F)(F)F)c3)cc2)C(=O)C2CCCCC2)c1 [Compound 253] |
|  | 1.16 | 233 |  |  | COC(=O)/C=C/c1cccc(N(Cc2ccc(-c3cc(Cl)ccc3OC)cc2)C(=O)C2CCCCC2)c1 [Compound 241] |
|  | 1.71 | 89 | excellent activity |  | COC(=O)/C=C/c1cccc(N(Cc2ccc(-c3ccc(OC)cc3)cc2)C(=O)C2CCCCC2)c1 [Compound 229] |
|  | 0.23 | 178 |  |  | COC(=O)/C=C/c1cccc(N(Cc2ccc(-c3ccc(SC)cc3)cc2)C(=O)NC(C)C)c1 [Compound 217] |
|  | 0.59 | 247 |  |  | COC(=O)/C=C/c1cccc(N(Cc2ccc(-c3cccc(OC(F)(F)F)c3)cc2)C(=O)C(C)C)c1 [Compound 254] |
|  | 1.38 | 26 | excellent activity |  | COC(=O)/C=C/c1cccc(N(Cc2ccc(-c3ccc(C)cc3)cc2)C(=O)C2CCCCC2)c1 [Compound 235] |
|  | 1.19 |  | excellent activity |  | COC(=O)/C=C/c1cccc(N(Cc2ccc(/C=C/c3ccc(F)cc3)cc2)C(=O)C(C)C)c1 [Compound 205] |
|  | 1.25 | 19 | excellent activity |  | COC(=O)/C=C/c1cccc(N(Cc2ccc(-c3ccc4c(c3)OCO4)cc2)C(=O)C(C)C)c1 [Compound 245] |
|  | 1.56 | 94 | excellent activity |  | COC(=O)/C=C/c1cccc(N(Cc2ccc(-c3cccc(Cl)c3)cc2)C(=O)C2CCCCC2)c1 [Compound 232] |
|  | 0.09 | 4010 |  |  | COC(=O)/C=C/c1cccc(N(Cc2ccc(-c3ccccc3OC)cc2)C(=O)NC(C)C)c1 [Compound 220] |
|  | 1.33 | 71 | excellent activity |  | COC(=O)/C=C/c1cccc(N(Cc2ccc(/C=C/c3cccc(F)c3)cc2)C(=O)C(C)C)c1 [Compound 202] |
|  | 1.38 | 132 |  |  | COC(=O)/C=C/c1cccc(N(Cc2ccc(-c3ccc(C(C)(C)C)cc3)cc2)C(=O)C2CCCCC2)c1 [Compound 262] |
|  |  | 72 | excellent activity |  | COC(=O)/C=C/c1cccc(N(Cc2ccc(-c3cccc(OC)c3)cc2)C(=O)C(C)C)c1 [Compound 224] |
|  | 0.17 | 3080 |  |  | COC(=O)/C=C/c1cccc(N(Cc2ccc(-c3cc(Cl)ccc3OC)cc2)C(=O)NC(C)C)c1 [Compound 243] |
